Assay results reported in patent US8735414B2 (priority 2009, dated 2014).

Legend:
[1] = test system: bicistronic HCV replicon (replicon RNA, GenBank Accession No. AJ242654); experiment: HCV Replicon Assay; format: cell-based; settings: Hepatitis C virus, 72 h, read-out: Replicon IC50

SMILES	IC50 [1] [nM]	melting point [°C]
Cc1cc2c(cc1Br)c(C#N)c(-c1ccc(S(=O)(=O)N[C@@H](C)C(F)(F)F)cn1)n2C1CCCC1 [compound 675, 6-(5-bromo-3-cyano-1-cyclopentyl-6-methyl-1H-indol-2-yl)-N-[(2S)-1,1,1-trifluoropropan-2-yl]pyridine-3-sulfonamide]	< 500	204 to 204.5
CCc1cc2c(cc1F)c(C#N)c(-c1ccc(S(=O)(=O)N[C@@H](C)C(F)(F)F)cn1)n2-c1ccc(C(F)(F)F)cc1 [compound 1006, 6-{3-cyano-6-ethyl-5-fluoro-1-[4-(trifluoromethyl)phenyl]-1H-indol-2-yl}-N-[(2S)-1,1,1-trifluoropropan-2-yl]pyridine-3-sulfonamide]	500 to 2000	276 to 282
Cc1cc2c(cc1F)c(C#N)c(-c1ccc(S(=O)(=O)NC(C)(C)C)cn1)n2-c1ccccc1 [compound 1108, N-tert-butyl-6-(3-cyano-5-fluoro-6-methyl-1-phenyl-1H-indol-2-yl)pyridine-3-sulfonamide]	< 500	200.6 to 202.4
C[C@H](NS(=O)(=O)c1ccc(-c2c(C(=O)O)c3cc(F)ccc3n2C2CCCCC2)nc1)C(F)(F)F [compound 741, 1-cyclohexyl-5-fluoro-2-(5-{[(2S)-1,1,1-trifluoropropan-2-yl]sulfamoyl}pyridin-2-yl)-1H-indole-3-carboxylic acid]	500 to 2000	216 to 220
Cc1ccc2c(c1)c(C#N)c(-c1ncc(S(=O)(=O)NC(C)C)cn1)n2C1CCCC1 [compound 159, 2-(3-cyano-1-cyclopentyl-5-methyl-1H-indol-2-yl)-N-(propan-2-yl)pyrimidine-5-sulfonamide]	< 500	193 to 198
Cc1cc2c(cc1F)c(C#N)c(-c1ccc(S(=O)(=O)NC(C)(C)C)cn1)n2C1CCCCC1 [compound 710, N-tert-butyl-6-(3-cyano-1-cyclohexyl-5-fluoro-6-methyl-1H-indol-2-yl)pyridine-3-sulfonamide]	< 500	244 to 245
CCc1cc2c(cc1F)c(C(N)=O)c(-c1ccc(S(=O)(=O)NC3(C(F)(F)F)CC3)cn1)n2-c1ncccn1 [compound 979, 6-ethyl-5-fluoro-1-(pyrimidin-2-yl)-2-(5-{[1-(trifluoromethyl)cyclopropyl]sulfamoyl}pyridin-2-yl)-1H-indole-3-carboxamide]	2000 to 5000	240 to 247
N#Cc1c(-c2ncc(S(=O)(=O)NC(CF)CF)cn2)n(CC2CC2)c2cc(OC(F)F)ccc12 [compound 136, 2-[3-cyano-1-(cyclopropylmethyl)-6-(difluoromethoxy)-1H-indol-2-yl]-N-(1,3-difluoropropan-2-yl)pyrimidine-5-sulfonamide]	< 500	207 to 209
CCCS(=O)(=O)Nc1ccc(-c2c(C#N)c3ccc(Oc4ncccc4C#N)cc3n2C2CCC2)nc1 [compound 272, N-(6-{3-cyano-6-[(3-cyanopyridin-2-yl)oxy]-1-cyclobutyl-1H-indol-2-yl}pyridin-3-yl)propane-1-sulfonamide]	500 to 2000	199 to 201
CC(C)n1c(-c2ccc(S(=O)(=O)NC(CF)CF)cn2)c(C#N)c2ccc(F)cc21 [compound 61, 6-[3-cyano-6-fluoro-1-(propan-2-yl)-1H-indol-2-yl]-N-(1,3-difluoropropan-2-yl)pyridine-3-sulfonamide]	< 500	155 to 156
COc1ccc2c(C#N)c(-c3ccc(S(=O)(=O)N[C@H](C)C(F)(F)F)cn3)n(C3CCCCC3)c2c1 [compound 518, 6-(3-cyano-1-cyclohexyl-6-methoxy-1H-indol-2-yl)-N-[(2R)-1,1,1-trifluoropropan-2-yl]-pyridine-3-sulfonamide]	< 500	198 to 204
COc1ccc2c(c1)c(C#N)c(-c1ncc(S(=O)(=O)N[C@@H](C)C(F)(F)F)cn1)n2C1CCC1 [compound 569, 2-(3-cyano-1-cyclobutyl-5-methoxy-1H-indol-2-yl)-N-[(2S)-1,1,1-trifluoropropan-2-yl]pyrimidine-5-sulfonamide]	500 to 2000	203 to 205
Cc1ccc2c(C#N)c(-c3ncc(S(=O)(=O)NC(C)C)cn3)n(C3CCC3)c2c1 [compound 169, 2-(3-cyano-1-cyclobutyl-6-methyl-1H-indol-2-yl)-N-(propan-2-yl)pyrimidine-5-sulfonamide]	< 500	217 to 219
Cc1cc2c(cc1F)c(C#N)c(-c1ccc(S(=O)(=O)N[C@@H](C)C(F)(F)F)cn1)n2-c1ccsc1Cl [compound 1057, 6-[1-(2-chlorothiophen-3-yl)-3-cyano-5-fluoro-6-methyl-1H-indol-2-yl]-N-[(2S)-1,1,1-trifluoropropan-2-yl]pyridine-3-sulfonamide]	< 500	226.7 to 231.8
CCc1cc2c(cc1F)c(C(N)=O)c(-c1ccc(S(=O)(=O)N[C@@H](C)C(F)(F)F)cn1)n2-c1ncccn1 [compound 849, 6-ethyl-5-fluoro-1-(pyrimidin-2-yl)-2-(5-{[(2S)-1,1,1-trifluoropropan-2-yl]sulfamoyl}pyridin-2-yl)-1H-indole-3-carboxamide]	< 500	235 to 236
N#Cc1c(-c2ccc(S(=O)(=O)NC(CF)CF)cn2)n(-c2ccncc2)c2ccc(F)cc12 [compound 259, 6-[3-cyano-5-fluoro-1-(pyridin-4-yl)-1H-indol-2-yl]-N-(1,3-difluoropropan-2-yl)pyridine-3-sulfonamide]	< 500	199 to 203
Cc1cc2c(cc1F)c(C#N)c(-c1ccc(S(=O)(=O)N[C@@H](C)C(F)(F)F)cn1)n2-c1nncs1 [compound 977, 6-[3-cyano-5-fluoro-6-methyl-1-(1,3,4-thiadiazol-2-yl)-1H-indol-2-yl]-N-[(2S)-1,1,1-trifluoropropan-2-yl]pyridine-3-sulfonamide]	< 500	232 to 240
Cc1cc2c(cc1Cl)c(C#N)c(-c1ccc(S(=O)(=O)N[C@H](C)C(F)(F)F)cn1)n2C1CCC1 [compound 445, 6-(5-chloro-3-cyano-1-cyclobutyl-6-methyl-1H-indol-2-yl)-N-[(2R)-1,1,1-trifluoropropan-2-yl]pyridine-3-sulfonamide]	< 500	213 to 215
CC(C)(NS(=O)(=O)c1ccc(-c2c(C(N)=O)c3cc(F)c(C4CC4)cc3n2C2CCCC2)nc1)C(F)(F)F [compound 850, 1-cyclopentyl-6-cyclopropyl-5-fluoro-2-{5-[(1,1,1-trifluoro-2-methylpropan-2-yl)sulfamoyl]pyridin-2-yl}-1H-indole-3-carboxamide]	< 500	236 to 237
N#Cc1c(-c2ncc(S(=O)(=O)NC(CF)CF)cn2)n(C2CCCC2)c2cc(CC(F)F)ccc12 [compound 599, 2-[3-cyano-1-cyclopentyl-6-(2,2-difluoroethyl)-1H-indol-2-yl]-N-(1,3-difluoropropan-2-yl)pyrimidine-5-sulfonamide]	< 500	174 to 210
Cc1cc2c(cc1F)c(C#N)c(-c1ccc(NS(=O)(=O)N[C@@H](C)C(F)(F)F)cn1)n2C1CCCC1 [compound 836, N-[6-(3-cyano-1-cyclopentyl-5-fluoro-6-methyl-1H-indol-2-yl)pyridin-3-yl]-N′-[(2S)-1,1,1-trifluoropropan-2-yl]sulfuric diamide]	500 to 2000	206 to 208
C[C@H](NS(=O)(=O)c1cnc(-c2c(C#N)c3ccc(OC(F)F)cc3n2C2CCCCC2)nc1)C1CC1 [compound 471, 2-[3-cyano-1-cyclohexyl-6-(difluoromethoxy)-1H-indol-2-yl]-N-[(1S)-1-cyclopropylethyl]pyrimidine-5-sulfonamide]	< 500	150 to 152
C[C@H](NS(=O)(=O)c1cnc(-c2c(C#N)c3ccc(C4CC4)cc3n2C2CCC2)nc1)C1CC1 [compound 131, 2-(3-cyano-1-cyclobutyl-6-cyclopropyl-1H-indol-2-yl)-N-[(1S)-1-cyclopropylethyl]pyrimidine-5-sulfonamide]	< 500	165 to 167
Cc1c(F)cc2c(c1F)c(C#N)c(-c1ccc(S(=O)(=O)NC(CF)CF)cn1)n2C1CCCC1 [compound 558, 6-(3-cyano-1-cyclopentyl-4,6-difluoro-5-methyl-1H-indol-2-yl)-N-(1,3-difluoropropan-2-yl)pyridine-3-sulfonamide]	< 500	214 to 219
C[C@H](NS(=O)(=O)c1ccc(-c2c(C#N)c3cc(Cl)ccc3n2C2CCCCC2)nc1)C(F)(F)F [compound 462, 6-(5-chloro-3-cyano-1-cyclohexyl-1H-indol-2-yl)-N-[(2S)-1,1,1-trifluoropropan-2-yl]pyridine-3-sulfonamide]	< 500	220 to 222
Cc1ccc2c(C#N)c(-c3ccc(S(=O)(=O)NC(C)(C)C(F)(F)F)cn3)n(C3CCC3)c2c1 [compound 478, 6-(3-cyano-1-cyclobutyl-6-methyl-1H-indol-2-yl)-N-(1,1,1-trifluoro-2-methylpropan-2-yl)pyridine-3-sulfonamide]	< 500	222 to 227
CCc1cc2c(cc1F)c(C(=O)O)c(-c1ccc(NS(=O)(=O)C(C)(C)C)cn1)n2C1CCCCC1 [compound 998, 2-{5-[(tert-butylsulfonyl)amino]pyridin-2-yl}-1-cyclohexyl-6-ethyl-5-fluoro-1H-indole-3-carboxylic acid]	500 to 2000	224 to 226
CC(C)n1c(-c2ccc(S(=O)(=O)NC(CF)CF)cn2)c(C#N)c2ccc(OC(F)F)cc21 [compound 36, 6-[3-cyano-6-(difluoromethoxy)-1-(propan-2-yl)-1H-indol-2-yl]-N-(1,3-difluoropropan-2-yl)pyridine-3-sulfonamide]	< 500	142 to 145
